Measurements: article PMC6128881, “Novel insight into the reaction of nitro, nitroso and hydroxylamino benzothiazinones and of benzoxacinones with Mycobacterium tuberculosis DprE1” (Scientific Reports, 2018)
In brackets after ≈: the same amount, converted by molar mass. Several values for one entry are separate records, joined by “and”; a condition that tells them apart may be missing. Equal values may be shown once. Read-outs that look alike come from different tables or passages of the source.

Tests used:
[1] = tested on: M. smegmatis; experiment: MIC against M. smegmatis (literature); assay type: cell-based
[2] = biological target: T1, Mtb-DprE1 (Mycobacterium tuberculosis, UniProt P9WJF1); experiment: Intact protein mass spectrometry of Mtb-DprE1 after incubation with inhibitor; assay type: binding; conditions: for mass increase of Mtb-DprE1 (covalent adduct): incubated in the presence of FPR and FAD, LC-MS; for extent of modification of Mtb-DprE1: 20 μM FAD
T1 construct: made in house; host or cells: E. coli

[3] = biological target: T1, Mtb-DprE1; experiment: biochemical; assay type: biochemical; conditions: for dependence of kobs on inhibitor concentration: inhibitor 10 nM to 100 µM; for kinact/Ki: second order rate constant of inactivation, 150 nM Mtb-DprE1, 1 mM FPR, up to 100 min; for fold lower kinact/Ki of BOZ than the BTZ counterpart: 4 vs 7, 3 vs 6, 5 vs 9; for fold increase in kinact/Ki as compared to 7: relative to 7
[4] = tested on: M. smegmatis DprE1; set-up: method as in PMID 22956199; conditions: cited from earlier work; for IC50: read-out: M. smegmatis DprE1 enzymatic IC50
[5] = tested on: M. tuberculosis H37Rv; experiment: Minimal inhibitory concentration, M. tuberculosis H37Rv; assay type: cell-based, Mycobacterium tuberculosis; conditions: for MIC Mtb-H37Rv / MIC / Inhibition of Mtb-H37Rv (MIC): n = 3; for MIC: read-out: MIC Mtb-H37Rv; for fold higher Mtb MIC of BOZ relative to BTZ counterpart: 5 vs 9, 10 vs PBTZ169
Experimental: MIC values for M. tuberculosis H37Rv and M. vaccae […] were determined as described previously[33],[34].

[6] = tested on: M. vaccae 10670; experiment: Minimal inhibitory concentration, M. vaccae; assay type: cell-based; conditions: n = 1
[7] = assay type: physicochemical; conditions: pH 7.4
Experimental: Solubility of compounds was measured by Chemi-Luminescent Nitrogen Detection (CLND)[32]. […] of 10 mM DMSO stock solutions of compounds were diluted to […] with phosphate buffered saline (PBS), pH 7.4, equilibrated for 1 hour at room temperature and filtered through Millipore Multiscreen HTS-PCF filter plates (MSSL BPC) prior to analysis by CLND.

[8] = tested on: M. smegmatis; set-up: method as in PMID 22956199; conditions: cited from earlier work
[9] = Mycobacterium tuberculosis, H37RV
[10] = IC50, final value of the decrease during the first 100 min of reaction, 100 min of reaction
[11] = IC50, starting value of the decrease during the first 100 min of reaction, early reaction time

T1 sequence (P9WJF1 whole entry): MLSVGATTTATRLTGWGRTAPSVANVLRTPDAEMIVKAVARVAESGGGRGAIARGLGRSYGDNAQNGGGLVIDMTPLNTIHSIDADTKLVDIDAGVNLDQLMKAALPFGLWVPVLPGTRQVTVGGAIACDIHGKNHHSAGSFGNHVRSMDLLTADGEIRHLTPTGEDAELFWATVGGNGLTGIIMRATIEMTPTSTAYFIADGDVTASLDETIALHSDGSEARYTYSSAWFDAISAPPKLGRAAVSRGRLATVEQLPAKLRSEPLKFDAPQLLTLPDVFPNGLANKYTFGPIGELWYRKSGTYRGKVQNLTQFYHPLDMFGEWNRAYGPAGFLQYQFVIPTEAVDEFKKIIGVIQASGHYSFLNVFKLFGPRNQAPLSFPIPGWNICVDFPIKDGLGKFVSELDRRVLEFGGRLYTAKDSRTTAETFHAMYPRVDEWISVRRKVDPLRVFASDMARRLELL

| SMILES | dependence of kobs on inhibitor concentration [3] | MIC Mtb-H37Rv [5] | MIC M. vaccae 10670 [6] | MIC [5] [µM] | CLND Solubility [7] [µM] | kinact/Ki [3] [M⁻¹ s⁻¹] | MIC [6] [µM] | further results |
| --- | --- | --- | --- | --- | --- | --- | --- | --- |
| C[C@H]1COC2(CCN(c3nc(=O)c4cc(C(F)(F)F)cc([N+](=O)[O-])c4s3)CC2)O1 [Compound 12, reference compound] | linear dependence | – | – | – | – | – | – | fold by which reported M. smegmatis and M. tuberculosis MIC values are lower than M. smegmatis DprE1 IC50 ([1]; MIC ref 4, IC50 ref 9): approximately 1000 fold; change in the mass spectrum of Mtb-DprE1 ([2]; control experiment in the absence of substrate): no change was observed; IC50 ([3]; after 10 min of reaction time, read-out: enzymatic DprE1 IC50): ~1.5 µM; IC50 ([3]; after 100 min of reaction time, read-out: enzymatic DprE1 IC50): ~0.12 µM; IC50 ([3]; equal to half the concentration of enzyme in the assay (150 nM), read-out: limiting IC50 value in theory had the assay been monitored longer): 0.075 µM; IC50 [4]: 4.5 µM |
| O=c1nc(N2CCCCC2)sc2c([N+](=O)[O-])cc(C(F)(F)F)cc12 [Compound 7, 8-Nitro-2-(piperidin-1-yl)-6-(trifluoromethyl)-4H-1,3-benzothiazin-4-one] | linear dependence | low micromolar | low micromolar | – | – | – | – | – |
| O=c1nc(N2CCCCC2)oc2c([N+](=O)[O-])cc(C(F)(F)F)cc12 [C00006] | – | 5.3 µg/mL (≈ 15.4 µM) | 1.6 µg/mL (≈ 4.66 µM) | 16 (≈ 5.49 µg/mL) | ≥510 | 5.6 ± 0.1 | 4.6 (≈ 1.58 µg/mL) | – |
| C[C@H]1COC2(CCN(c3nc(=O)c4cc(C(F)(F)F)cc(N=O)c4s3)CC2)O1 [C00014] | – | – | 0.03 µg/mL (≈ 0.0722 µM) | – | 210 | 39 ± 1 | 0.06 (≈ 0.0249 µg/mL) | Inhibition of Mtb-H37Rv (MIC) ([5]; at 0.16 μM): 67% Inhibition at 0.16 μM |
| C[C@H]1COC2(CCN(c3nc(=O)c4cc(C(F)(F)F)cc([N+](=O)[O-])c4s3)CC2)O1 [C00009] | – | 0.001 µg/mL (≈ 0.00232 µM) | 0.0004 µg/mL (≈ 0.000927 µM) | 0.0023 (≈ 0.000992 µg/mL) | 32 | 720 ± 20 | 0.001 (≈ 0.000431 µg/mL) | – |
| O=c1nc(N2CCCCC2)oc2c([N+](=O)[O-])cc(C(F)(F)F)cc12 [Compound 4, 8-nitro-2-(piperidin-1-yl)-6-(trifluoromethyl)-4H-1,3-benzoxazin-4-one] | linear dependence | – | – | – | – | – | – | fold lower kinact/Ki of BOZ than the BTZ counterpart [3]: 7 fold |
| O=c1nc(N2CCOCC2)sc2c([N+](=O)[O-])cc(C(F)(F)F)cc12 [Compound 6, 2-(morpholin-4-yl)-8-nitro-6-(trifluoromethyl)-4H-1,3-benzothiazin-4-one] | hyperbolic dependence | – | – | – | – | – | – | – |
| O=c1nc(N2CCN(CC3CCCCC3)CC2)oc2c([N+](=O)[O-])cc(C(F)(F)F)cc12 [Compound 10, 2-[4-(cyclohexylmethyl)piperazin-1-yl]-8-nitro-6-(trifluoromethyl)-4H-1,3-benzoxazin-4-one] | hyperbolic dependence | – | – | – | – | – | – | fold higher Mtb MIC of BOZ relative to BTZ counterpart [5]: approximately 700 fold; MIC [5, 9]: 0.3 µM (≈ 0.132 µg/mL) |
| CC1COC2(CCN(c3nc(=O)c4cc(C(F)(F)F)cc(N=O)c4s3)CC2)O1 (centres unmarked) [Compound 8, 2-{2-Methyl-1,4-dioxa-8-azaspiro[4.5]decan-8-yl}-8-nitroso-6-(trifluoromethyl)-4H-1,3 benzothiazin-4-one] | linear dependence | – | – | – | – | – | – | – |
| O=c1nc(N2CCN(CC3CCCCC3)CC2)sc2c([N+](=O)[O-])cc(C(F)(F)F)cc12 [C00010] | – | 0.00019 µg/mL (≈ 0.000416 µM) | – | 0.00042 (≈ 0.000192 µg/mL) | 32 | – | – | – |
| O=c1nc(N2CCCCC2)sc2c(NO)cc(C(F)(F)F)cc12 [C00013] | – | – | 6.2 µg/mL (≈ 18 µM) | >80 | 10 | – | 18 (≈ 6.22 µg/mL) | – |
| C[C@H]1COC2(CCN(c3nc(=O)c4cc(C(F)(F)F)cc(NO)c4s3)CC2)O1 [BTZ046] | – | – | – | – | – | – | – | fold by which MIC against M. smegmatis is lower than the enzymatic IC50 ([1]; from literature values): approximately 8 fold; MIC against M. smegmatis [8]: 1000 ng/ml and 2.4 μM; time dependent inhibition of M. smegmatis DprE1 [4]: not observed; IC50 [4]: 20 µM |
| CC1CCCC(C)N1c1nc(=O)c2cc(C(F)(F)F)cc([N+](=O)[O-])c2o1 (centres unmarked) [Compound 5, 2-(2,6-Dimethylpiperidin-1-yl)-8-nitro-6-(trifluoromethyl)-4H-1,3-benzoxazin-4-one] | linear dependence | – | – | – | – | – | – | fold higher Mtb MIC of BOZ relative to BTZ counterpart [5]: 8 fold; fold lower kinact/Ki of BOZ than the BTZ counterpart [3]: 31 fold |
| O=c1nc(N2CCCCC2)sc2c([N+](=O)[O-])cc(C(F)(F)F)cc12 [C00002] | – | 1.2 µg/mL (≈ 3.34 µM) | 0.4 µg/mL (≈ 1.11 µM) | 3.3 (≈ 1.19 µg/mL) | 370 | 39 ± 2 | 1.1 (≈ 0.395 µg/mL) | – |
| O=c1nc(N2CCCCC2)sc2c([N+](=O)[O-])c(Cl)c(C(F)(F)F)cc12 [Compound 11, 7-Chloro-8-nitro-2-(piperidin-1-yl)-6-(trifluoromethyl)-4H-1,3-benzothiazin-4-one] | hyperbolic dependence | – | – | – | – | – | – | mass increase of Mtb-DprE1 (covalent adduct) [2]: 378 Da; fold increase in kinact/Ki as compared to 7 [3]: 8.7 fold |
| O=c1nc(N2CCN(CC3CCCCC3)CC2)oc2c([N+](=O)[O-])cc(C(F)(F)F)cc12 [C00011] | – | 0.14 µg/mL (≈ 0.318 µM) | < 0.05 µg/mL | 0.31 (≈ 0.137 µg/mL) | 12 | 300 ± 40 | < 0.11 | – |
| O=c1nc(N2CCOCC2)sc2c([N+](=O)[O-])cc(C(F)(F)F)cc12 [C00003] | – | 2.1 µg/mL (≈ 5.81 µM) | 3.1 µg/mL (≈ 8.58 µM) | 5.9 (≈ 2.13 µg/mL) | ≥450 | 17 ± 2 | 8.6 (≈ 3.11 µg/mL) | – |
| O=c1nc(N2CCOCC2)oc2c([N+](=O)[O-])cc(C(F)(F)F)cc12 [C00007] | – | 1.4 µg/mL (≈ 4.06 µM) | 6.2 µg/mL (≈ 18 µM) | 3.9 (≈ 1.35 µg/mL) | ≥510 | 4.2 ± 0.1 | 18 (≈ 6.21 µg/mL) | – |
| O=Nc1cc(C(F)(F)F)cc2c(=O)nc(N3CCCCC3)sc12 [C00012] | – | – | 25 µg/mL (≈ 72.8 µM) | – | 250 | – | 73 (≈ 25.1 µg/mL) | Inhibition of Mtb-H37Rv (MIC) ([5]; at 80 μM): 82% Inhibition at 80 μM |
| O=c1nc(N2CCCCC2)sc2c(NO)cc(C(F)(F)F)cc12 [Compound 2] | – | – | – | – | – | – | – | mass increase of Mtb-DprE1 species (covalent adduct) ([2]; 10 µM Mtb-DprE1, 20 µM compound, absence of FPR and resazurin): 340–343 Da; time for covalent modification of the enzyme to reach completion ([2]; 20 μM compound, 10 µM Mtb-DprE1, no FPR): approximately one hour; extent of modification of Mtb-DprE1 ([2]; 30 minutes after incubation): partial modification; extent of modification of Mtb-DprE1 ([2]; 60 minutes after incubation): complete modification; mass increase of Mtb-DprE1 (covalent adduct) [2]: 343 Da; MIC [5, 9]: > 80 µM; IC50 [3, 10]: 0.8 µM; IC50 [3, 11]: 3.5 µM; MIC ([6]; Mycolicibacterium vaccae, 10670): 18.1 µM (≈ 6.25 µg/mL) |
| O=c1nc(N2CCOCC2)oc2c([N+](=O)[O-])cc(C(F)(F)F)cc12 [Compound 3, 2-(morpholin-4-yl)-8-nitro-6-(trifluoromethyl)-4H-1,3-benzoxazin-4-one] | linear dependence | – | – | – | – | – | – | fold lower kinact/Ki of BOZ than the BTZ counterpart [3]: 4 fold |
| CC1CCCC(C)N1c1nc(=O)c2cc(C(F)(F)F)cc([N+](=O)[O-])c2s1 (centres unmarked) [Compound 9, 2-(2,6-Dimethylpiperidin-1-yl)-8-nitro-6-(trifluoromethyl)-4H-1,3-benzothiazin-4-one] | linear dependence | – | – | – | – | – | – | fold increase in kinact/Ki as compared to 7 [3]: 6 fold |
| O=Nc1cc(C(F)(F)F)cc2c(=O)nc(N3CCCCC3)sc12 [Compound 1, 8-Nitroso-2-(piperidin-1-yl)-6-(trifluoromethyl)-4H-1,3-benzothiazin-4-one] | – | – | – | – | – | – | – | mass increase of Mtb-DprE1 (covalent adduct) [2]: 343 Da; IC50 [3, 10]: 3 µM; IC50 [3, 11]: 5 µM |
